Test results taken from ChEMBL document CHEMBL3751693, “Synthesis, antimicrobial evaluation and molecular modeling of 5-hydroxyisoquinolinium salt series; the effect of the hydroxyl moiety” (Bioorg Med Chem, 2016).

Assays:
[1] = test system: Staphylococcus aureus; assay: Antimicrobial activity against clinical isolate Staphylococcus aureus CCM 451608 after 24 hrs; format: functional; conditions: CCM 451608, 24 h
[2] = test system: Staphylococcus aureus; assay: Antimicrobial activity against clinical isolate Staphylococcus aureus CCM 451608 after 48 hrs; format: functional; conditions: CCM 451608, 48 h
[3] = test system: Staphylococcus aureus; assay: Antimicrobial activity against clinical isolate methicillin-resistant Staphylococcus aureus H 599608 after 24 hrs; format: functional; conditions: H 599608, 24 h
[4] = test system: Staphylococcus aureus; assay: Antimicrobial activity against clinical isolate methicillin-resistant Staphylococcus aureus H 599608 after 48 hrs; format: functional; conditions: H 599608, 48 h
[5] = test system: Staphylococcus epidermidis; assay: Antimicrobial activity against clinical isolate Staphylococcus epidermidis H 696608 after 24 hrs; format: functional; conditions: H 696608, 24 h
[6] = test system: Staphylococcus epidermidis; assay: Antimicrobial activity against clinical isolate Staphylococcus epidermidis H 696608 after 48 hrs; format: functional; conditions: H 696608, 48 h
[7] = test system: Enterococcus sp.; assay: Antimicrobial activity against clinical isolate Enterococcus sp. J 1436508 after 24 hrs; format: functional; conditions: J 1436508, 24 h
[8] = test system: Enterococcus sp.; assay: Antimicrobial activity against clinical isolate Enterococcus sp. J 1436508 after 48 hrs; format: functional; conditions: J 1436508, 48 h
[9] = test system: Escherichia coli; assay: Antimicrobial activity against clinical isolate Escherichia coli CCM 4517 after 24 hrs; format: functional; conditions: CCM 4517, 24 h
[10] = test system: Escherichia coli; assay: Antimicrobial activity against clinical isolate Escherichia coli CCM 4517 after 48 hrs; format: functional; conditions: CCM 4517, 48 h
[11] = test system: Klebsiella pneumoniae; assay: Antimicrobial activity against clinical isolate Klebsiella pneumoniae D 1175008 after 24 hrs; format: functional; conditions: D 1175008, 24 h
[12] = test system: Klebsiella pneumoniae; assay: Antimicrobial activity against clinical isolate Klebsiella pneumoniae D 1175008 after 48 hrs; format: functional; conditions: D 1175008, 48 h
[13] = test system: Klebsiella pneumoniae; assay: Antimicrobial activity against clinical isolate ESBL-Klebsiella pneumoniae J 1436808 after 24 hrs; format: functional; conditions: J 1436808, 24 h
[14] = test system: Klebsiella pneumoniae; assay: Antimicrobial activity against clinical isolate ESBL-Klebsiella pneumoniae J 1436808 after 48 hrs; format: functional; conditions: J 1436808, 48 h
[15] = test system: Pseudomonas aeruginosa; assay: Antimicrobial activity against clinical isolate Pseudomonas aeruginosa CCM 1961 after 72 hrs; format: functional; conditions: CCM 1961, 72 h
[16] = test system: Pseudomonas aeruginosa; assay: Antimicrobial activity against clinical isolate Pseudomonas aeruginosa CCM 1961 after 120 hrs; format: functional; conditions: CCM 1961, 120 h
[17] = test system: Candida albicans; assay: Antimicrobial activity against Candida albicans ATCC 44859 after 24 hrs by spectrophotometry; format: functional; conditions: ATCC 44859, 24 h
[18] = test system: Aspergillus fumigatus; assay: Antimicrobial activity against Aspergillus fumigatus 231 after 24 hrs by spectrophotometry; format: functional; conditions: Aspergillus fumigatus, 231, 24 h
[19] = test system: Candida albicans; assay: Antimicrobial activity against Candida albicans ATCC 44859 after 48 hrs by spectrophotometry; format: functional; conditions: ATCC 44859, 48 h
[20] = test system: Candida tropicalis; assay: Antimicrobial activity against Candida tropicalis 156 after 24 hrs by spectrophotometry; format: functional; conditions: Candida tropicalis, 156, 24 h
[21] = test system: Candida tropicalis; assay: Antimicrobial activity against Candida tropicalis 156 after 48 hrs by spectrophotometry; format: functional; conditions: Candida tropicalis, 156, 48 h
[22] = test system: Pichia kudriavzevii; assay: Antimicrobial activity against Candida krusei E28 after 24 hrs by spectrophotometry; format: functional; conditions: E28, 24 h
[23] = test system: Pichia kudriavzevii; assay: Antimicrobial activity against Candida krusei E28 after 48 hrs by spectrophotometry; format: functional; conditions: E28, 48 h
[24] = test system: Nakaseomyces glabratus; assay: Antimicrobial activity against Candida glabrata 20/I after 24 hrs by spectrophotometry; format: functional
[25] = test system: Nakaseomyces glabratus; assay: Antimicrobial activity against Candida glabrata 20/I after 48 hrs by spectrophotometry; format: functional
[26] = test system: Trichosporon asahii; assay: Antimicrobial activity against Trichosporon asahii 1188 after 24 hrs by spectrophotometry; format: functional; conditions: Trichosporon asahii, 1188, 24 h
[27] = test system: Trichosporon asahii; assay: Antimicrobial activity against Trichosporon asahii 1188 after 48 hrs by spectrophotometry; format: functional; conditions: Trichosporon asahii, 1188, 48 h
[28] = test system: Aspergillus fumigatus; assay: Antimicrobial activity against Aspergillus fumigatus 231 after 48 hrs by spectrophotometry; format: functional; conditions: Aspergillus fumigatus, 231, 48 h
[29] = test system: Lichtheimia corymbifera; assay: Antimicrobial activity against Absidia corymbifera 272 after 24 hrs by spectrophotometry; format: functional; conditions: Lichtheimia corymbifera, 272, 24 h
[30] = test system: Lichtheimia corymbifera; assay: Antimicrobial activity against Absidia corymbifera 272 after 48 hrs by spectrophotometry; format: functional; conditions: Lichtheimia corymbifera, 272, 48 h
[31] = test system: Trichophyton mentagrophytes; assay: Antimicrobial activity against Trichophyton mentagrophytes 445 after 72 hrs by spectrophotometry; format: functional; conditions: Trichophyton mentagrophytes, 445, 72 h
[32] = test system: Trichophyton mentagrophytes; assay: Antimicrobial activity against Trichophyton mentagrophytes 445 after 120 hrs by spectrophotometry; format: functional; conditions: Trichophyton mentagrophytes, 445, 120 h
[33] = Cytotoxicity against CHOK1 cells after 24 hrs by MTT assay; format: cell-based; conditions: Cricetulus griseus, CHO-K1, 24 h

CCCCCCCCCCCC[n+]1ccc2ccccc2c1 [LAURYL ISOQUINOLINIUM BROMIDE]
7.8 µM: MIC [7] | MIC [8] | MIC [9] | MIC [10] | MIC [31] | MIC [32]
63 µM: MBC [8] | MBC [12] | MIC [13] | MIC [14] | MIC [26] | MFC [27] | MIC [27]
125 µM: MBC [14] | MIC [18] | MFC [28] | MIC [28]
0.5 µM: MIC [1] | MIC [2] | MIC [3] | MIC [4] | MIC [5] | MIC [6] | MIC [17] | MIC [19] | MIC [20] | MIC [21] | MIC [22] | MIC [23] | MIC [24] | MIC [25]
15 µM: IC50 [33]
1 µM: MBC [2] | MBC [4] | MBC [6] | MFC [19] | MFC [21] | MFC [23] | MFC [25]
250 µM: MIC [15] | MBC [16] | MIC [16] | MIC [29] | MFC [30] | MIC [30]
31 µM: MBC [10]
16 µM: MIC [11] | MIC [12] | MFC [32]
